From US4927922A, “7β-(substituted)amino-3-substituted cephalosporanic acids and esters” (American Cyanamid Company, priority 1988, dated 1990)
Converted amounts (≈) assume the structure as drawn. Like-named read-outs stand apart in the source and are kept apart here.

What was measured:
Experiment in all cases: in vitro agar dilution test (MIC)
Type in all cases: cell-based
[1] = tested on: Staphylococcus aureus ATCC 25923; conditions: ATCC25923
Description: (§1) The compounds of the present invention are active antibacterial agents as established in the in vitro agar dilution test using Mueller-Hinton agar. The test compounds were dissolved in a mixture of dimethyl sulfoxide and aqueous sodium bicarbonate and applied as 1 ml of drug solution plus 9 ml of agar per plate. The innoculum was a 5 hour TSB shake culture diluted to 10^-2 with Mueller-Hinton broth and applied to the plates with a Steers' Replicator.
(§2) The results of this test on representative compounds of this invention (identified by Example Number) against a variety of microorganisms appear in Tables I and II in terms of minimal inhibitory concentration (MIC) in mcg/ml together with Cefotaxime, Cephalothin and Ampicillin as positive controls.

[2] = tested on: Escherichia coli CMC 84-16; conditions: CMC8416
Description: as §1, §2

[3] = tested on: Proteus rettgheri CMC 84-41
Description: as §1, §2

[4] = tested on: Escherichia coli ATCC 25922; conditions: ATCC25922, Mueller-Hinton agar, Table II
Description: as §1, §2

[5] = tested on: Serratia marcesans F 35 (MP); conditions: Serratia
Description: as §1, §2

[6] = tested on: Staphylococcus aureus Smith (MP)
Description: as §1, §2

[7] = tested on: Escherichia coli No. 311(Parent); conditions: Mueller-Hinton agar
Description: as §1, §2

[8] = tested on: Enterobacter cloacae VGH 84-37; conditions: Enterobacter cloacae, VGH8437
Description: as §1, §2

[9] = tested on: Escherichia coli CMC 84-11; conditions: CMC8411, Mueller-Hinton agar
Description: as §1, §2

[10] = tested on: Klebsiella pneumoniae MOR 84-4; conditions: MOR844
Description: as §1, §2

[11] = tested on: Pseudomonas aeruginosa VGH 84-4; conditions: Pseudomonas aeruginosa, VGH844
Description: as §1, §2

[12] = tested on: Enterobacter cloacae K 84-10; conditions: Enterobacter cloacae, K8410
Description: as §1, §2

[13] = tested on: Acinetobacter calcoaceticus MOR 84-43; conditions: MOR8443
Description: as §1, §2

[14] = tested on: Staphylococcus aureus CMC 83-128; conditions: CMC83128
Description: as §1, §2

[15] = tested on: Klebsiella oxytoca MOR 84-28; conditions: MOR8428
Description: as §1, §2

[16] = tested on: Enterobacter aerogenes VGH 84-36; conditions: Klebsiella aerogenes, VGH8436
Description: as §1, §2

[17] = tested on: Staphylococcus epidermidis IO 83-58; conditions: IO8358
Description: as §1, §2

[18] = tested on: Escherichia coli No. 311 N.A.; conditions: Mueller-Hinton agar
Description: as §1, §2

[19] = tested on: Serratia marcesans K 84-18; conditions: K8418
Description: as §1, §2

[20] = tested on: Staphylococcus saprophyticus VGH 84-50; conditions: VGH8450
Description: as §1, §2

Enterococcus VGH 84-65 = conditions: VGH8465
Description: as §1, §2

[21] = tested on: Morganella morganii CMC 84-37; conditions: Morganella morganii, CMC8437
Description: as §1, §2

[22] = tested on: Klebsiella pneumoniae AD (MP)
Description: as §1, §2

[23] = tested on: Pseudomonas aeruginosa 12-4-4 (MP); conditions: Pseudomonas aeruginosa
Description: as §1, §2

[24] = tested on: Staphylococcus epidermidis CMC 83-135; conditions: CMC83135
Description: as §1, §2

[25] = tested on: Staphylococcus aureus CMC 83-131; conditions: CMC83131
Description: as §1, §2

[26] = tested on: Staphylococcus aureus CMC 83-132; conditions: CMC83132
Description: as §1, §2

[27] = tested on: Morganella morganii VGH 84-11; conditions: Morganella morganii, VGH8411
Description: as §1, §2

CC1(C)S[C@@H]2[C@H](NC(=O)[C@H](N)c3ccccc3)C(=O)N2[C@H]1C(=O)O [Ampicillin, reference compound]
MIC ([1]; Staphylococcus aureus ATCC 25923, Mueller-Hinton agar, Table II, read-out: MIC): ≤ 0.12 µg/mL
MIC ([2]; Escherichia coli): > 256 µg/mL
MIC ([3]; Proteus rettgheri CMC 84-41, Mueller-Hinton agar, read-out: MIC): 0.5 µg/mL (≈ 1.43 µM)
MIC [4]: 4 µg/mL (≈ 11.4 µM)
MIC [5]: > 256 µg/mL
MIC ([6]; Staphylococcus aureus Smith (MP), Mueller-Hinton agar, Table II, read-out: MIC): ≤ 0.12 µg/mL
MIC [7]: 2 µg/mL (≈ 5.72 µM)
MIC [8]: > 256 µg/mL
MIC [9]: 4 µg/mL (≈ 11.4 µM)
MIC ([10]; Klebsiella pneumoniae MOR 84-4, Mueller-Hinton agar, read-out: MIC): 32 µg/mL (≈ 91.6 µM)
MIC [11]: > 256 µg/mL
MIC [12]: > 256 µg/mL
MIC ([13]; Acinetobacter calcoaceticus MOR 84-43, Mueller-Hinton agar, read-out: MIC): 32 µg/mL (≈ 91.6 µM)
MIC ([14]; Staphylococcus aureus CMC 83-128, Mueller-Hinton agar, read-out: MIC): ≤ 0.12 µg/mL
MIC ([15]; Klebsiella oxytoca MOR 84-28, Mueller-Hinton agar, read-out: MIC): 32 µg/mL (≈ 91.6 µM)
MIC [16]: 256 µg/mL (≈ 733 µM)
MIC ([17]; Staphylococcus epidermidis IO 83-58, Mueller-Hinton agar, read-out: MIC): 16 µg/mL (≈ 45.8 µM)
MIC [18]: 2 µg/mL (≈ 5.72 µM)
MIC ([19]; Serratia marcesans K 84-18, Mueller-Hinton agar, read-out: MIC): 64 µg/mL (≈ 183 µM)
MIC ([20]; Staphylococcus saprophyticus VGH 84-50, Mueller-Hinton agar, read-out: MIC): ≤ 0.12 µg/mL
MIC (Enterococcus VGH 84-65; Enterococcus VGH 84-65, Mueller-Hinton agar, read-out: MIC): 1 µg/mL (≈ 2.86 µM)
MIC [21]: 256 µg/mL (≈ 733 µM)
MIC ([22]; Klebsiella pneumoniae AD (MP), Mueller-Hinton agar, Table II, read-out: MIC): 0.25 µg/mL (≈ 0.715 µM)
MIC [23]: > 256 µg/mL
MIC ([24]; Staphylococcus epidermidis CMC 83-135, Mueller-Hinton agar, read-out: MIC): ≤ 0.12 µg/mL
MIC ([25]; Staphylococcus aureus CMC 83-131, Mueller-Hinton agar, read-out: MIC): 2 µg/mL (≈ 5.72 µM)
MIC ([26]; Staphylococcus aureus CMC 83-132, Mueller-Hinton agar, read-out: MIC): 1 µg/mL (≈ 2.86 µM)
MIC [27]: > 256 µg/mL

CC(=O)OCC1=C(C(=O)O)N2C(=O)[C@@H](NC(=O)Cc3cccs3)[C@H]2SC1 [Cephalothin, reference compound]
MIC ([1]; Staphylococcus aureus): 0.25 µg/mL (≈ 0.631 µM)
MIC ([2]; Escherichia coli CMC 84-16, Mueller-Hinton agar, read-out: MIC): 16 µg/mL (≈ 40.4 µM)
MIC [3]: 4 µg/mL (≈ 10.1 µM)
MIC [4]: 16 µg/mL (≈ 40.4 µM)
MIC [5]: > 256 µg/mL
MIC ([6]; Staphylococcus aureus): ≤ 0.12 µg/mL
MIC [7]: 8 µg/mL (≈ 20.2 µM)
MIC [8]: > 256 µg/mL
MIC [9]: 8 µg/mL (≈ 20.2 µM)
MIC ([10]; Klebsiella pneumoniae): 2 µg/mL (≈ 5.04 µM)
MIC [11]: > 256 µg/mL
MIC [12]: > 256 µg/mL
MIC ([13]; Acinetobacter calcoaceticus): > 256 µg/mL
MIC ([14]; Staphylococcus aureus): ≤ 0.12 µg/mL
MIC ([15]; Klebsiella oxytoca): > 256 µg/mL
MIC [16]: > 256 µg/mL
MIC ([17]; Staphylococcus epidermidis): 0.25 µg/mL (≈ 0.631 µM)
MIC [18]: 8 µg/mL (≈ 20.2 µM)
MIC ([19]; Serratia): > 256 µg/mL
MIC ([20]; Staphylococcus saprophyticus): 0.25 µg/mL (≈ 0.631 µM)
MIC (Enterococcus VGH 84-65; Enterococcus): 32 µg/mL (≈ 80.7 µM)
MIC [21]: > 256 µg/mL
MIC ([22]; Klebsiella pneumoniae): 1 µg/mL (≈ 2.52 µM)
MIC [23]: > 256 µg/mL
MIC ([24]; Staphylococcus epidermidis): ≤ 0.12 µg/mL
MIC ([25]; Staphylococcus aureus): 32 µg/mL (≈ 80.7 µM)
MIC ([26]; Staphylococcus aureus): 32 µg/mL (≈ 80.7 µM)
MIC [27]: > 256 µg/mL
